Results reported in patent US20070293666A1, “Optical Filter and Its Applications, and Porphyrin Compound Used in Optical Filter” (Mitsui Chemicals, Inc., priority 2004, published 2007).

Experiments:
Format in all cases: physicochemical
[1] = Solubility in acetone; parameters: key: ∘: completely dissolved; x: not completely dissolved; conditions: for Solubility 0.1%: 0.1 weight % based on acetone; for Solubility 0.2%: 0.2 weight % based on acetone; for Solubility 1.0%: 1.0 weight % based on acetone
Protocol: (§1) Compounds represented by the compound Nos. 1-1, 1-2, 1-3, 1-4 and 1-7 (Table 1-1) were synthesized in the same manner as in Examples 1-1 and 1-2. With respect to compounds synthesized in Example 1-2 and Synthesis Example 1-1 along with these compounds, the maximum absorption wavelength (λmax), the gram absorption coefficient (εg) and solubility were measured.
(§2) λmax and εg are values in the chloroform solution, while the solubility is weight % based on acetone.

[2] = Light transmittance of spin-coated optical filter (acrylic adhesive on glass plate); conditions: 0.1 weight % dye diluting agent mixed with acrylic adhesive, dry film 5 μm
Protocol: (§3) A compound represented by the compound No. 1-4 (Table 1-1) was dissolved in a mixed solvent of acetone and toluene (weight ratio 50:50) such that the concentration was 0.1 weight % to give a dye-containing diluting agent. An acrylic adhesive and the dye-containing diluting agent (weight ratio 50:70) were mixed and applied by spin coating at 800 rpm for 30 seconds onto a glass plate, and the resulting material was dried to prepare an optical filter. The dry film thickness of the coating layer was 5 μm. In the above filter, light transmittance was measured by using a spectrophotometer (UV-3100, manufactured by Shimadzu Corporation). Light transmittance in a wavelength of 550 nm was 47.2%.
as §3, with “2-12” for “1-4”, “2-2) synthesized in the same manner as in Examples 2-1 and 2-2” for “1-1)”, “plate” for “plate,”, “Light transmittance in a wavelength of 550 nm was 47.2%.” left out

[3] = Absorption spectrum in chloroform (maximum absorption wavelength, gram absorption coefficient, 550/525 nm coefficient ratio); conditions: for εg (gram absorption coefficient) / λmax: chloroform solution
Protocol: as §1, §2
With respect to the compounds represented by the compound Nos. 1-2, 1-3, 1-6 and 1-7 synthesized in Examples 1-2 and 1-3 (corresponding to compounds (3-B), (3-C), (3-E) and (3-F) respectively) along with the obtained compound (3-A), the maximum absorption wavelength and the ratio of the absorption coefficient at a wavelength of 550 nm to the absorption coefficient at a wavelength of 525 nm, which were measured in a chloroform solvent, are shown in Table 3-1. [drawing 26] [drawing 27] [drawing 28] [drawing 29]

[4] = High temperature/high humidity test of optical filter; conditions: 60° C. and 90% RH
Protocol: (§4) With respect to the optical filters obtained from the compounds (3-A) and (3-B), environmental accelerated tests of high temperature, high-temperature/high-humidity and artificial sunlight irradiation were carried out. In the test, a constant temperature chamber at 80° C. (DN-61, manufactured by Yamato Scientific Co., Ltd.), a constant temperature and humidity chamber at 60° C. and 90% RH (Product name, FX2200, manufactured by Kusumoto Chemicals, Ltd.) and a solar simulator (manufactured by Ushio Inc.) were respectively used. A visible light ray in a wavelength of from 380 to 780 nm was irradiated on a surface of the ultraviolet blocking film of the above optical filter at 50 mW/cm^2 for a predetermined time in a room at a temperature of 30±10° C. and a humidity of 50±20%.
(§5) The above optical filters were kept under each environmental condition for 500 hours and 1000 hours, and light transmittance of the optical filter was measured by using the spectrophotometer after 500 hours and 1000 hours. An absorption retention rate in a maximum absorption wavelength after each environmental accelerated test was obtained from the above equation (2).

[5] = Light resistance test / artificial sunlight irradiation test of optical filter; conditions: visible light 380 to 780 nm
Protocol: To evaluate light resistance of the dye, a sample prepared in the same method as in evaluation of heat resistance is used. The absorption retention rate represented by the above equation (1) is measured in the same manner as in heat resistance. However, in this case, the obtained sample is not kept under the environment of 80° C., but the above visible light ray is irradiated on a side of the ultraviolet blocking film of the sample in a room at a temperature of 30±10° C., a humidity of 50±20% for a predetermined time. Tmax,1 represents light transmittance in a maximum absorption wavelength after the above visible light ray is irradiated for a predetermined time. When there are a plurality of absorption maxima, Tmax,0 is light transmittance at a maximum absorption wavelength showing the highest absorption coefficient. Tmax,1 represents light transmittance at the same wavelength as that in Tmax,0 or at a maximum absorption wavelength nearest to the wavelength in Tmax,0.
With respect to the optical filters obtained from the compounds (3-A) to (3-F), environmental accelerated tests were carried out by artificial sunlight irradiation using a solar simulator (manufactured by Ushio Inc.). A visible light ray in a wavelength of from 380 to 780 nm was irradiated on the ultraviolet blocking film of the prepared optical filter at 50 mW/cm^2 for 250 hours in a room at a temperature of 30±10° C. and a humidity of 50±20%. At this time, an absorption retention rate represented by the above equation (1) was obtained.
as §4, §5

[6] = Light transmittance of optical filter (dye-containing acrylic adhesive sheet, 1000 ppm dye); conditions: dye 1000 (wt)ppm in acrylic adhesive, 25 μm
Protocol: When the compound (3-A) was dispersed and dissolved in a solvent of ethyl acetate and toluene (weight ratio 50:50) and dried, a dye-containing diluting agent for an acrylic adhesive was prepared such that the dye concentration in the resin was 1000 (wt)ppm. Subsequently, the acrylic adhesive (a copolymer of butyl acrylate and acrylic acid (Product name: DBBOND, manufactured by Diabond Industry Co., Ltd.)) and a dye-containing diluting agent were mixed (weight ratio 80:20), and continuously applied on a mold releasing layer of a mold releasing film comprising a polyethylene terephthalate film and a silicone mold releasing layer according to a bar coating method, and the resulting material was dried. Then, the other mold releasing film was attached to the coating surface to prepare a dye-containing adhesive sheet having a thickness of 25 μm with mold releasing films having different mold releasing forces at both sides.
The mold releasing film on one side of the prepared adhesive sheet was peeled away and the resulting sheet was attached to a transparent acrylic resin (manufactured by Mitsubishi Rayon Co., Ltd., Acrylite, thickness: 2 mm), while the mold releasing film on the other side thereof was further peeled away and an ultraviolet blocking film (manufactured by Teijin Co., Ltd., HB Film, thickness: 75 μm) was attached to prepare an optical filter.
With respect to the obtained optical filter, the light transmittance in a wavelength of from 300 to 800 nm was measured by using a spectrophotometer (Product name: U-3400, manufactured by Hitachi, Ltd.) in accordance with JIS R3106. A percentage of light transmittance at a wavelength of 550 nm to light transmittance at a wavelength of 525 nm was obtained.

[7] = High temperature test of optical filter; conditions: 80° C.
Protocol: A dye-containing diluting agent was prepared such that the dye concentration in the resin was 1000 (wt)ppm when the dye was dispersed and dissolved in a solvent and dried. Subsequently, an acrylic adhesive (a copolymer of butyl acrylate and acrylic acid (Product name: DBBOND, manufactured by Diabond Industry Co., Ltd.) and the dye-containing diluting agent are mixed (weight ratio 80:20), and continuously applied on a mold releasing layer of a mold releasing film comprising a polyethylene terephthalate film and a silicone mold releasing layer according to the bar coating method, and the resulting material was dried. Due to this, an acrylic adhesive containing the dye having a film thickness of 25 μm was prepared. The prepared adhesive was attached to a transparent acrylic resin (manufactured by Mitsubishi Rayon Co., Ltd., Acrylite, thickness: 2 mm), and the mold releasing film of the adhesive was peeled away and an ultraviolet blocking film (manufactured by Teijin Co., Ltd., HB Film, thickness: 75 μm) was attached to give the sample for evaluation. […]
The above optical filters were kept under each environmental condition for 500 hours and 1000 hours, and light transmittance of the optical filter was measured by using the spectrophotometer after 500 hours and 1000 hours. […]

| Structure (SMILES) | Solubility 0.1% [1] | Solubility 0.2% [1] | Solubility 1.0% [1] | Light transmittance in a wavelength of 550 nm [2] | εg (gram absorption coefficient) [3] | λmax [3] | Absorption retention rate, High temperature/High humidity test, after 500 hours ([4]; 500 hours) | Absorption retention rate, High temperature/High humidity test, After 1000 hours ([4]; 1000 hours) | Absorption Retention after Light resistance test for 250 hours ([5]; 50 mW/cm^2, 250 hours, 30±10° C., humidity 50±20%) | Absorption retention rate, Artificial sunlight irradiation test, after 500 hours ([5]; 50 mW/cm^2, 500 hours) | Absorption retention rate, Artificial sunlight irradiation test, After 1000 hours ([5]; 50 mW/cm^2, 1000 hours) | Maximum Absorption Wavelength ([3]; chloroform solvent) | Ratio of Absorption Coefficient at 525 nm and 550 nm ([3]; chloroform solvent, coefficient at 550 nm to coefficient at 525 nm) | Light Transmittance at 525 nm [6] | Light Transmittance at 550 nm [6] | T@550/T@525 Light Transmittance Ratio [6] | Absorption retention rate, High temperature test, after 500 hours ([7]; 500 hours) | Absorption retention rate, High temperature test, After 1000 hours ([7]; 1000 hours) |
| --- | --- | --- | --- | --- | --- | --- | --- | --- | --- | --- | --- | --- | --- | --- | --- | --- | --- | --- |
| CCCCCCCCCCOc1ccc(C2=c3nc(c4c5cccc6cccc(c3=4)c65)C(c3ccc(OCCCCCCCCCC)cc3)=c3c4c(c5[n]3[Cu][n]3c2c2c(c3C(c3ccc(OCCCCCCCCCC)cc3)=c3nc(c6c7cccc8cccc(c3=6)c87)C=5c3ccc(OCCCCCCCCCC)cc3)-c3cccc5cccc-2c35)-c2cccc3cccc-4c23)cc1 [1-4] | ∘ | ∘ | ∘ | 47.2% | 115,000 | 552 nm | – | – | – | – | – | – | – | – | – | – | – | – |
| CCCCCOc1ccc(C2=c3nc(c4c5cccc6cccc(c3=4)c65)C(c3ccc(OCCCCC)cc3)=c3c4c(c5[n]3[Cu][n]3c2c2c(c3C(c3ccc(OCCCCC)cc3)=c3nc(c6c7cccc8cccc(c3=6)c87)C=5c3ccc(OCCCCC)cc3)-c3cccc5cccc-2c35)-c2cccc3cccc-4c23)cc1 [1-2] | ∘ | ∘ | ∘ | – | 154,000 | 553 nm | 91% | 90% | 95% | 95% | 93% | 553 nm | 2.5 | 62.6% | 37.2% | 59% | 100% | 100% |
